Experimental data published in patent US8580965B2, “Substituted sulfonamide compounds” (Gruenenthal GmbH, priority 2006, dated 2013).

Key:
[1] = biological target: T1, human B1R receptor (bradykinin 1 receptor) (Homo sapiens, UniProt P46663); assay: FLIPR Ca2+ assay (Fluo-4) on CHO K1 cells stably transfected with the human B1R gene; % activation and % inhibition at 10 μM; format: cell-based; settings: CHO-K1, test substance 10 μM; CHO K1 hB1R cells; Ca2+ inflow after 0.5 nM Lys-Des-Arg9-bradykinin; read-out: B1R antagonism, human [10 μM] % inhibition
T1 construct: host or cells: CHO K1 cells (hB1R cells)
T1 sequence (P46663 1-353): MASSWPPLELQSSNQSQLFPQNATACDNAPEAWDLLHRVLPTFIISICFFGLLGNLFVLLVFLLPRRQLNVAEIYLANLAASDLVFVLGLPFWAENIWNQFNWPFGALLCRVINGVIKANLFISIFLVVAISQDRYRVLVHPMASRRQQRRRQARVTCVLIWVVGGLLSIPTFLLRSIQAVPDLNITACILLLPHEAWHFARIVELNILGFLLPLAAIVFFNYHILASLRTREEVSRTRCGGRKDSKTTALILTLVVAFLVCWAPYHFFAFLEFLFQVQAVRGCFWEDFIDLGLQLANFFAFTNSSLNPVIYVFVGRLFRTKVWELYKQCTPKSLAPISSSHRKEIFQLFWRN
Method in brief: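 CHO K1 cells stably expressing human or rat B1R, Fluo-4 loaded, read by FLIPR (peak fluorescence). Compound at 10 µM first gives % activation versus agonist; after 10 min, agonist (human: 0.5 nM Lys-Des-Arg9-bradykinin; rat: 100 nM Des-Arg9-bradykinin) gives % inhibition relative to maximal inhibition.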

[2] = biological target: T2, B1R receptor of the rat (bradykinin 1 receptor) (Rattus norvegicus, UniProt P97583); assay: FLIPR Ca2+ assay (Fluo-4) on CHO K1 cells stably transfected with the B1R gene of the rat; % activation and % inhibition at 10 μM; format: cell-based; settings: CHO-K1, test substance 10 μM; CHO K1 rB1R cells; Ca2+ inflow after 100 nM Des-Arg9-bradykinin; read-out: B1R antagonism, rat [10 μM] % inhibition
T2 construct: host or cells: CHO K1 cells (rB1R cells)
T2 sequence (P97583 1-337): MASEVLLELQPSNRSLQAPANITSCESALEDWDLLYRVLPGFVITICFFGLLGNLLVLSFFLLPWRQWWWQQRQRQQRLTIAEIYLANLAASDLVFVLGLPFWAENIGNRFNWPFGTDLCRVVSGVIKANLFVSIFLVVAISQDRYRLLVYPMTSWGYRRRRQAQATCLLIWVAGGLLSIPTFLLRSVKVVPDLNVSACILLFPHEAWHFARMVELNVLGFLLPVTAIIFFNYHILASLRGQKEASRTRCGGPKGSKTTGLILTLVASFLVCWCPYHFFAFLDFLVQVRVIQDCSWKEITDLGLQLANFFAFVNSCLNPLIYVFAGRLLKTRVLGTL
Method: The agonistic or antagonistic action of substances can be quantified on the bradykinin receptor 1 (B1R) of the species human and rat with ectopically expressing cell lines (CHO K1 cells) and with the aid of a Ca^2+-sensitive dye (Fluo-4) using a fluorescent imaging plate reader (FLIPR). The indication in % activation is based on the Ca^2+ signal after addition of Lys-Des-Arg^9-bradykinin (0.5 nM) or Des-Arg^9-bradykinin (100 nM). Antagonists result in a suppression of the Ca^2+ influx following administration of the agonist. The % inhibition in comparison with the maximum achievable inhibition is indicated.
Functional Investigation on the Bradykinin 1 Receptor (B1R)
The agonistic or antagonistic action of substances can be determined on the bradykinin 1 receptor (B1R) of the human and rat species with the following assay. According to this assay, the Ca^2+ inflow through the channel is quantified with the aid of a Ca^2+-sensitive dyes (Fluo-4 type, Molecular Probes Europe BV, Leiden, The Netherlands) in a fluorescent imaging plate reader (FLIPR, Molecular Devices, Sunnyvale, USA).
Chinese Hamster Ovary cells (CHO K1 cells) which are stably transfected with the human B1R gene (hB1R cells, Euroscreen s.a., Gosselies, Belgium) or the B1R gene of the rat (rB1R cells, Axxam, Milan, Italy) are used. For functional investigations, these cells are plated-out on black 96-well plates with a clear base (BD Biosciences, Heidelberg, Germany) in a density of 20,000-25,000 cells/well. Overnight, the cells are incubated at 37° C. and 5% CO2 in culture medium (hB1R cells: Nutrient Mixture Ham's F12, Gibco Invitrogen GmbH, Karlsruhe, Germany; rB1R cells: D-MEM/F12, Gibco Invitrogen, Karlsruhe, Germany) with 10 vol. % FBS (foetal bovine serum, Gibco Invitrogen GmbH, Karlsruhe, Germany). On the following day, the cells are loaded with 2.13 μM Fluo-4 (Molecular Probes Europe BV, Leiden, The Netherlands) in HBSS buffer (Hank's buffered saline solution, Gibco Invitrogen GmbH, Karlsruhe, Germany) […] (Sigma-Aldrich, Taufkirchen, Germany) and 10 mM HEPES (Sigma-Aldrich, Taufkirchen, Germany) for 60 min at 37° C. The plates are subsequently washed 2× with HBSS buffer, and HBSS buffer which additionally contains 0.1% BSA (bovine serum albumin; Sigma-Aldrich, Taufkirchen, Germany), 5.6 mM glucose and 0.05% gelatine (Merck KGaA, Darmstadt, Germany) is added. After a further incubation of 20 minutes at room temperature, the plates are inserted into the FLIPR for Ca^2+ measurement. The Ca^2+-dependent fluorescence is measured here before and after addition of substances (λex=488 nm, λem=540 nm). The quantification is effected by measurement of the highest fluorescence intensity (FC, fluorescence counts) over time.
The FLIPR protocol comprises 2 additions of substance. Test substances (10 μM) are first pipetted on to the cells and the Ca^2+ inflow is compared with the control (hB1R: Lys-Des-Arg^9-bradykinin 0.5 nM; rB1R: Des-Arg^9-bradykinin 100 nM). The value in % activation based on the Ca^2+ signal after addition of Lys-Des-Arg^9-bradykinin (0.5 nM) or Des-Arg^9-bradykinin (100 nM) is obtained therefrom. After incubation for 10 minutes, 0.5 nM Lys-Des-Arg^9-bradykinin (hB1R) or 100 nM Des-Arg^9-bradykinin (rB1R) are applied and the inflow of Ca^2+ is likewise determined. Antagonists lead to a suppression of the Ca^2+ inflow. % inhibition compared with the maximum inhibition which can be achieved is calculated. The compounds show a good activity on the human and on the rat receptor. The following data were determined by way of example: […]

| SMILES | inhibition at 10 µM [1] [%] | inhibition at 10 µM [2] [%] |
| --- | --- | --- |
| CN(CCOCC(=O)N1CCC(O)(c2ccccn2)CC1)S(=O)(=O)c1ccc(OC(F)(F)F)cc1 [Example 20, N-{2-[2-(4′-hydroxy-3′,4′,5′,6′-tetrahydro-2′H-[2,4′]bipyridinyl-1′-yl)-2-oxo-ethoxy]-ethyl}-N-methyl-4-trifluoromethoxy-phenylsulfonamide] | 22.2 | 17.1 |
| COc1cc(C)c(S(=O)(=O)N2CCC(OCC(=O)N3CCC(O)(c4ccccn4)CC3)C2)c(C)c1 (centres unmarked) [Example 21, 1-(4′-hydroxy-3′,4′,5′,6′-tetrahydro-2′H-[2,4′]bipyridinyl-1′-yl)-2-[1-(4-methoxy-2,6-dimethyl-phenylsulfonyl)-pyrrolidin-3-yloxy]-ethanone] | 20.5 | 71.1 |
| COc1ccc(S(=O)(=O)N2Cc3ccccc3CC2COCC(=O)N2CCC(O)(Cc3ccccc3)CC2)cc1 (centres unmarked) [Example 23, 1-(4-benzyl-4-hydroxy-piperidin-1-yl)-2-[2-(4-methoxy-phenylsulfonyl)-1,2,3,4-tetrahydro-isoquinolin-3-ylmethoxy]-ethanone] | 15.7 | 56.9 |
| Cc1ccc(S(=O)(=O)N2CCC(OCC(=O)N3CCC(O)(Cc4ccccc4)CC3)C2)cc1 (centres unmarked) [Example 24, 1-(4-benzyl-4-hydroxy-piperidin-1-yl)-2-[1-(toluene-4-sulfonyl)-pyrrolidin-3-yloxy]-ethanone] | 12.1 | 6.88 |
| COc1ccc(S(=O)(=O)N2CCCC2COCC(=O)N2CCC(O)(c3ccncc3)CC2)cc1 (centres unmarked) [Example 26, 1-(4-hydroxy-3,4,5,6-tetrahydro-2H-[4,4′]bipyridinyl-1-yl)-2-[1-(4-methoxy-phenylsulfonyl)-pyrrolidin-2-ylmethoxy]-ethanone] | 9.64 | 5.09 |
| Cc1cc(C)c(S(=O)(=O)N2CCC(OCC(=O)N3CCC(O)(c4ccccn4)CC3)C2)c(C)c1 (centres unmarked) [Example 30, 1-(4′-hydroxy-3′,4′,5′,6′-tetrahydro-2′H-[2,4′]bipyridinyl-1′-yl)-2-[1-(2,4,6-trimethyl-phenylsulfonyl)-pyrrolidin-3-yloxy]-ethanone] | 6.86 | 17.4 |
| CN(c1ccccc1OCC(=O)N1CCC(O)(Cc2ccccc2)CC1)S(=O)(=O)c1ccc(Cl)c(Cl)c1 [Example 33, N-{2-[2-(4-benzyl-4-hydroxy-piperidin-1-yl)-2-oxo-ethoxy]-phenyl}-3,4-dichloro-N-methyl-phenylsulfonamide] | 6.18 | 19.4 |
| O=C(COC1CCN(S(=O)(=O)c2ccccc2)C1)N1CCC(O)(c2ccccn2)CC1 (centres unmarked) [Example 34, 2-(1-phenylsulfonyl-pyrrolidin-3-yloxy)-1-(4′-hydroxy-3′,4′,5′,6′-tetrahydro-2′H-[2,4′]bipyridinyl-1′-yl)-ethanone] | 5.93 | 40.3 |
| COc1ccc(S(=O)(=O)N2CCCC2COCC(=O)N2CCC(O)(c3ccccn3)CC2)cc1 (centres unmarked) [Example 40, 1-(4′-hydroxy-3′,4′,5′,6′-tetrahydro-2′H-[2,4′]bipyridinyl-1′-yl)-2-[1-(4-methoxy-phenylsulfonyl)-pyrrolidin-2-ylmethoxy]-ethanone] | 1.84 | 61.3 |
| COc1ccc(S(=O)(=O)N(C)CCOCC(=O)N2CCC(O)(c3ccccn3)CC2)cc1OC [Example 41, N-{2-[2-(4′-hydroxy-3′,4′,5′,6′-tetrahydro-2′H-[2,4′]bipyridinyl-1′-yl)-2-oxo-ethoxy]-ethyl}-3,4-dimethoxy-N-methyl-phenylsulfonamide] | 1.29 | -6.31 |
| COc1ccc(S(=O)(=O)N(C)CCOCC(=O)N2CCC(O)(c3ccccn3)CC2)cc1 [Example 42, N-{2-[2-(4′-hydroxy-3′,4′,5′,6′-tetrahydro-2′H-[2,4′]bipyridinyl-1′-yl)-2-oxo-ethoxy]-ethyl}-4-methoxy-N-methyl-phenylsulfonamide] | 0.67 | -38.1 |
| CN(C1CCCCC1OCC(=O)N1CCC(O)(Cc2ccccc2)CC1)S(=O)(=O)c1ccc(Cl)c(Cl)c1 (centres unmarked) [Example 43, N-{2-[2-(4-benzyl-4-hydroxy-piperidin-1-yl)-2-oxo-ethoxy]-cyclohexyl}-3,4-dichloro-N-methyl-phenylsulfonamide] | -1.29 | 33.9 |
| COc1ccc(S(=O)(=O)N2CCCCC2CCOCC(=O)N2CCC(O)(c3ccccn3)CC2)cc1 (centres unmarked) [Example 44, 1-(4′-hydroxy-3′,4′,5′,6′-tetrahydro-2′H-[2,4′]bipyridinyl-1′-yl)-2-{2-[1-(4-methoxy-phenylsulfonyl)-piperidin-2-yl]-ethoxy}-ethanone] | -2.3 | 76.6 |
| O=C(COCCN1CCN(S(=O)(=O)c2ccccc2)CC1)N1CCC(O)(c2ccncc2)CC1 [Example 49, 2-[2-(4-phenylsulfonyl-piperazin-1-yl)-ethoxy]-1-(4-hydroxy-3,4,5,6-tetrahydro-2H-[4,4′]bipyridinyl-1-yl)-ethanone] | -5.73 | 7.14 |
| COc1ccc(S(=O)(=O)N2Cc3ccccc3CC2COCC(=O)N2CCC(O)(c3ccccn3)CC2)cc1 (centres unmarked) [Example 50, 1-(4′-hydroxy-3′,4′,5′,6′-tetrahydro-2′H-[2,4′]bipyridinyl-1′-yl)-2-[2-(4-methoxy-phenylsulfonyl)-1,2,3,4-tetrahydro-isoquinolin-3-ylmethoxy]-ethanone] | -9.09 | 47.5 |
| O=C(COC1CCCN(S(=O)(=O)c2ccccc2)C1)N1CCC(O)(c2ccccn2)CC1 (centres unmarked) [Example 51, 2-(1-phenylsulfonyl-piperidin-3-yloxy)-1-(4′-hydroxy-3′,4′,5′,6′-tetrahydro-2′H-[2,4′]bipyridinyl-1′-yl)-ethanone] | -9.71 | 10.8 |
